Data published in US12195427B2, “MASP-2 inhibitors and methods of use” (priority 2018, dated 2025).
Blank lines part the entries; values can stand above or below the compound they belong to.

What was measured:
[1] = target: MASP-2 CCP2-SP (Homo sapiens (Human), UniProt O00187); assay: MASP-2 co-crystallization, X-ray crystallography and structure analysis (H-bonds, van der Waals contacts); design: van der Waals contact distance, MASP-2 HIS 483 atom CD2 / van der Waals contact distance, MASP-2 HIS 483 atom NE2 / van der Waals contact distance, SER 654 C to compound atom / van der Waals contact distance, SER 654 O to compound atom / van der Waals contact distance, TRP 655 C to compound atom / van der Waals contact distance, MASP-2 GLY 528 atom CA / van der Waals contact distance TRP 655 atom CZ3 / van der Waals contact distance TRP 655 atom N / van der Waals contact distance TRP 655 atom CE3 / van der Waals contact distance GLY 656 atom C / van der Waals contact distance GLY 656 atom CA / van der Waals contact distance GLY 656 atom O / van der Waals contact distance, MASP-2 TYR 607 atom CD1 / van der Waals contact distance, MASP-2 PRO 606 atom O / d(C3,CA1) / d(CA1,N1)2 / d(H4,O1) / d(H4,O2) / d(O1,O2) / d(CA1,O2) / d(CA6,O1) / d(CA6,O2) / d(CA1,C5) / d(O2,H3) / d(N2,C2) / d(CA5,N2) / d(N2,C4) / d(N2,C6) / d(N2,CA3) / d(N2,O3) / d(O4,H2): unit not given beside the values; details: for H-bond distance to MASP-2 GLY 656 atom N: GLY 656 N; for H-bond distance to MASP-2 GLY 656 atom O: GLY 656 O; for H-bond distance to MASP-2 SER 654 atom O: SER 654 O; for H-bond distance to MASP-2 SER 657 atom O: SER 657 O;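 as to Ligand-pharmacophore element distance, pharmacophore element C2: distance from averaged pharmacophore element to bound ligand; missing value means element absent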;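 as to Ligand-pharmacophore element distance, pharmacophore element C3: distance from averaged pharmacophore element to bound ligand; missing value means element absent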;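 as to Ligand-pharmacophore element distance, pharmacophore element C4: distance from averaged pharmacophore element to bound ligand; missing value means element absent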;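 as to Ligand-pharmacophore element distance, pharmacophore element C5: distance from averaged pharmacophore element to bound ligand; missing value means element absent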
Summary of the method: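 First, CCP2-SP constructs with or without a 6His tag are produced in E. coli. Crystals are then soaked once or twice with inhibitor, cryoprotected in 20% glycerol or frozen directly, and diffracted at synchrotron beamlines. Phasing uses molecular replacement with parts of 1Q3X.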

[2] = system: Lectin Pathway; assay: Lectin Pathway Activation Assay in Human Serum (mannan-coated ELISA, C3c detection); format: biochemical; details: 1% human serum
Description: Microtiter ELISA plate was coated with mannan from Saccharomyces cerevisiae (Sigma-Aldrich, M7504) for overnight at 4° C. in coating buffer [15 mM Na2CO3, 35 mM NaHCO3].

[3] = Table A5-1 pharmacophore: distance between elements, S2/S1 region
[4] = Table A5-2 pharmacophore distance, S3/S4 region
[5] = Table A7-1, between pharmacophore elements of the bound compound

Chain of MASP-2 CCP2-SP (O00187 445-686): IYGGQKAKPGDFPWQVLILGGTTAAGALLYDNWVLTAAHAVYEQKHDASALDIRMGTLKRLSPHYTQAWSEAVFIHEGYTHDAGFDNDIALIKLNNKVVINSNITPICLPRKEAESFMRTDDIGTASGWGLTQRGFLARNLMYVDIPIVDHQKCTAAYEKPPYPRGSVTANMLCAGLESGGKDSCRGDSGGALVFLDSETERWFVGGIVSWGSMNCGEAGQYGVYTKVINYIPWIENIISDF
Chain of MASP-2 CCP2-SP (O00187 364-432 partner): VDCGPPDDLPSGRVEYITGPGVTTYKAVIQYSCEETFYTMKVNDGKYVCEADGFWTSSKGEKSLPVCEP

H-bond distance to MASP-2 GLY 656 atom N ([1]; Table A1 (H-Bonds)): 3.12
H-bond distance to MASP-2 GLY 656 atom O ([1]; Table A1 (H-Bonds)): 2.82
H-bond distance to MASP-2 SER 628 atom OG ([1]; Table A1 (H-Bonds), SER 628 OG): 3.17
H-bond distance to MASP-2 SER 654 atom O ([1]; Table A1 (H-Bonds)): 2.82
H-bond distance to MASP-2 SER 657 atom O ([1]; Table A1 (H-Bonds)): 2.91
van der Waals contact distance, MASP-2 HIS 483 atom CD2 ([1]; Table A2-1): 3.61
van der Waals contact distance, MASP-2 amino acid atom to compound atom ([1]; Table A2-9 second part, ARG 630, AA atoms N, NE, NH1): 3.83
van der Waals contact distance GLY 656 atom C ([1]; Table A2-13, MASP-2 GLY 656 C): 3.73
van der Waals contact distance GLY 656 atom CA ([1]; Table A2-13, MASP-2 GLY 656 CA): 3.86
van der Waals contact distance TRP 655 atom N ([1]; Table A2-13, MASP-2 TRP 655 N): 3.81
van der Waals contact distance GLY 656 atom N ([1]; Table A2-14, MASP-2 GLY 656 N): 3.78
van der Waals contact distance SER 657 atom C ([1]; Table A2-14, MASP-2 SER 657 C, columns c12-c13 (inferred)): 3.82
IC50 [2]: 500 to 5000 nM
SMILES: C[C@H](NC(=O)c1cc(-c2ccccc2)c[nH]1)C(=O)NCc1ccc(C(=N)N)cc1 [compound 1030]

SMILES: Cc1nc(N)ccc1CNC(=O)[C@H](C)NC(=O)[C@H]1C[C@H](Cc2ccccc2)CN1 [compound 1304, (2R,4S)—N—((S)-1-(((6-Amino-2-methylpyridin-3-yl)methyl)amino)-1-oxopropan-2-yl)-4-benzylpyrrolidine-2-carboxamide]
H-bond distance to MASP-2 ASP 627 atom OD2 ([1]; Table A1 (H-Bonds), ASP 627 OD2): 3.17
H-bond distance to MASP-2 GLY 656 atom N ([1]; Table A1 (H-Bonds)): 3.2
H-bond distance to MASP-2 GLY 656 atom O ([1]; Table A1 (H-Bonds)): 2.81
H-bond distance to MASP-2 SER 628 atom O ([1]; Table A1 (H-Bonds), SER 628 O): 3.18
H-bond distance to MASP-2 SER 654 atom O ([1]; Table A1 (H-Bonds)): 2.97
H-bond distance to MASP-2 SER 657 atom O ([1]; Table A1 (H-Bonds)): 2.96
van der Waals contact distance, MASP-2 HIS 483 atom CD2 ([1]; Table A2-1): 3.71
van der Waals contact distance, MASP-2 HIS 483 atom NE2 ([1]; Table A2-1): 3.65
van der Waals contact distance, MASP-2 GLY 528 atom CA ([1]; Table A2-2): 3.79
van der Waals contact distance, MASP-2 PHE 529 atom CD2 ([1]; Table A2-3): 3.79
van der Waals contact distance, MASP-2 PHE 529 atom CE2 ([1]; Table A2-3): 3.84
van der Waals contact distance, MASP-2 TYR 607 atom CD1 ([1]; Table A2-4): 3.78
van der Waals contact distance, MASP-2 amino acid atom to compound atom ([1]; Table A2-7: SER 628 (CB, O, OG)): 3.65
van der Waals contact distance, VAL 653 CG1 to compound atom ([1]; Table A2-11): 3.27
van der Waals contact distance, TRP 655 CA to compound atom ([1]; Table A2-12): 3.42
van der Waals contact distance TRP 655 atom CE3 ([1]; Table A2-13, MASP-2 TRP 655 CE3, compound atom in line below): 3.78
van der Waals contact distance TRP 655 atom CZ3 ([1]; Table A2-13, MASP-2 TRP 655 CZ3): 3.68
van der Waals contact distance, MASP-2 amino acid atom to compound atom ([1]; Table A2 section before Table A2-8): 3.81
Ligand-pharmacophore element distance, pharmacophore element C2 ([1]; Table A4-1, element C2): 0
Ligand-pharmacophore element distance, pharmacophore element C3 ([1]; Table A4-1, element C3): 0.09
Ligand-pharmacophore element distance, pharmacophore element C4 ([1]; Table A4-1, element C4): 0
Ligand-pharmacophore element distance, pharmacophore element C5 ([1]; Table A4-1, element C5): 0
Ligand-pharmacophore element distance, pharmacophore element C6 ([1]; Table A4-1, element C6): 0
Ligand-pharmacophore element distance, pharmacophore element C7 ([1]; Table A4-1, element C7): 0
Ligand-pharmacophore element distance, pharmacophore element CA1 ([1]; Table A4-1, element CA1): 0.56
Ligand-pharmacophore element distance, pharmacophore element CA2 ([1]; Table A4-1, element CA2): 0.23
Ligand-pharmacophore element distance, pharmacophore element CA3 ([1]; Table A4-1, element CA3): 0
Ligand-pharmacophore element distance, pharmacophore element CA4 ([1]; Table A4-1, element CA4): 0
Ligand-pharmacophore element distance, pharmacophore element CA5 ([1]; Table A4-1, element CA5): 0
Ligand-pharmacophore element distance, pharmacophore element CA6 ([1]; Table A4-1, element CA6): 0
d(C3,CA1) [1, 3]: 2.84
d(CA1,N1)2 [1, 3]: 1.38
d(CA1,O1) [1, 3]: 4.39
d(CA1,O2) [1, 3]: 3.89
d(H4,O1) [1, 3]: 4.40
d(H4,O2) [1, 3]: 3.85
d(O1,O2) [1, 3]: 3.37
d(N2,CA2) [1, 4]: 5.96
d(O2,H3) [1, 4]: 4.37
d(O2,N2) [1, 4]: 2.62
a(C3, CA1, O1) ([1]; Table A6-1 pharmacophore angle): 149.82
a(CA1, O1, O2) ([1]; Table A6-1 pharmacophore angle): 105.87
a(O1, O2, H4) ([1]; Table A6-1 pharmacophore angle): 132.43
a(N1, CA1, O1) b) ([1]; Table A6-1 pharmacophore angle, Methyl-amino-pyridine compounds): 173.92
a(O1, O2, H3) ([1]; Table A6-2 pharmacophore angle): 147.16
a(O1, O2, N2) ([1]; Table A6-2 pharmacophore angle): 139.74
a(O2, N2, CA2) ([1]; Table A6-2 pharmacophore angle): 156.83
Pharmacophore torsion angle a(C3, CA1, O1, H4) [1, 5]: 24.93
Pharmacophore torsion angle a(H4, O1, O2, H3) [1, 5]: 49.79
Pharmacophore torsion angle a(H4, O1, O2, N2) [1, 5]: 138.09
Pharmacophore torsion angle a(N1, CA1, O1, H4) [1, 5]: 5.90
Pharmacophore torsion angle a(O1, H4, O2, CA1) [1, 5]: −84.58
Pharmacophore torsion angle a(O1, O2, N2, CA2) ([1]; Table A7-2, between pharmacophore elements of the bound compound): 125.90
IC50 [2]: 50 to 500 nM
